Assay results reported in paper PMC6271870, “Study on the Synthesis, Biological Activity and Spectroscopy of Naphthalimide-Diamine Conjugates” (Molecules, 2014).

Columns and labels:
herring sperm DNA = assay: Iodide (KI) fluorescence quenching in absence and presence of DNA; type: binding; settings: KI quencher
From the text: A highly negatively charged quencher is expected to be repelled by the negatively charged phosphate backbone of DNA, therefore an intercalative bound drug molecules should be protected from being quenched by anionic quencher, but the free aqueous complexes or groove binding drugs should be quenched readily by anionic quenchers. At the same time, whether the quencher accesses to fluorophore also plays a role in free and bound one.
Negatively charged I^− was selected for this purpose. The quenching constants (Ksv) were obtained from the Stern–Volmer equation. […]
Solution of compound 7f (0.5 mL, 2.00 × 10^−4 mol/L and herring sperm DNA 0.5 mL ([…]) in Tris-HCl (pH = 7.4) were mixed with 0.0, 0.10, 0.20, 0.30, 0.60, 0.90 1.20, 1.50, 1.80, 2.10, 2.40, 2.70 and 3.00 of KI (2.0 × 10^−2 mol∙L^−1) respectively. Meanwhile, 0.5 mL solution of compound 7f (2.00 × 10^−4 mol/L was only mixed with 0.0, 0.10, 0.20, 0.30, 0.60, 0.90 1.20, 1.50, 1.80, 2.10, 2.40, 2.70 and 3.00 mL of KI (2.0 × 10^−2 mol∙L^−1) respectively. The mixture was diluted to 5 mL with Tris-HCl (pH = 7.4). Thus, samples were prepared in the concentration of KI at 0.0, 400, 800, 1,200, 2,400, 3,600, 4,800, 6,000, 7,200, 8,400, 9,600, 10,800, 12,000 × 10^−6 mol∙L^−1. […] Fluorescence wavelengths and intensity areas of samples were measured at following conditions: EX = 345 nm, EM = 355~600 nm.

human leukemia K562 = assay: MTT assay, K562 cells; type: cell-based; settings: 48 h, aminoguanidine present, mean ± SD of three determinations, max 50 µM tested
Method: The cytotoxicities of the novel conjugates were assessed in vitro by the MTT assay in the presence of aminoguanidine (an inhibitor of amine oxidase) against three cell lines, human leukemia K562, cancer of colon HCT116 and human normal hepatocyte QSG-7701 [34]. […] Thus, compound 7f was selected for further investigation. Cell lines, K562, 7721 and HCT116 were obtained from American Type Culture Collection (ATCC, Shanghai, China). Cells were cultured in RPMI1640, supplemented with 10% heat-inactivated fetal calf serum (FCS), antibiotics (penicillin, 100 units/mL; streptomycin sulfate, 100 μg/mL) at 37 °C, in an atmosphere of 95% air and 5% CO2 under humidified conditions. Aminoguanidine (1 mM) was added as an inhibitor of amine oxidase derived from FCS and had no effect on the various parameters of the cell measured in this study. Chemosensitivity was assessed using the 3-(4,5-dimethylthiazol-2-yl)-2,5-diphenyltetrazolium bromide (MTT) assay. […] After incubation for 4 h at 37 °C, the purple formazan crystals (i.e., a reduced form of MTT) generated from viable cells were dissolved by adding 100 μL 10% sodium dodecyl sulphate (SDS) in each well. The absorbance of each well was then read at 570 nm.

HepG2 cells = assay: Cell cycle analysis by High Content Screening (PI staining); type: cell-based; settings: HepG2, 20 μM, 48 h
Method: To reveal the cytotoxic mechanism of compound 7f, we ﬁrst examined its effects on the cell cycle perturbation. The DNA content analysis by High Content Screening (HCS) confirmed that 7f could induce HepG2 cell cycle perturbation (Figure 3).
Exponentially growing HepG2 cells were seeded in 96 well plates ([…]), cultured for 24 h and then treated with different concentrations of compound 7f for 48 h. After incubation for 48 h, cells were washed twice with ice-cold 10% PBS, fixed and permeabilized with ice-cold 70% ethanol at −20 °C overnight. The cells were treated with 50 μg/mL RNase A at room temperature for 30 min after washed with ice-cold PBS, and finally stained with 50 μg/mL propidium iodide (PI) in the dark at 4 °C for 30 min. The distribution of cell cycle phases with different DNA contents was read in image analysis system of high content screening living cells.

Ksv with I^− ion (herring sperm DNA; absence of DNA, 7f 20 × 10^−6 mol∙L^−1): 38.178 L/mol
Ksv with I^− ion (herring sperm DNA; presence of DNA 22.84 × 10^−6 mol∙L^−1, 7f 20 × 10^−6 mol∙L^−1): 31.575 L/mol
IC50 (human leukemia K562): 18.9 ± 1.97 µM
Structure (SMILES): Cl.Cl.NCCCCNCCCN1C(=O)c2cccc3cccc(c23)C1=O [Compound 7f, 2-[3-(4-Aminobutylamino)propyl]1H-benz-[de]isoquinoline-1,3(2H)-dione dihydrochloride]
cells in G2/M phase (HepG2 cells): 49.8%
cells in G0/G1 phase (HepG2 cells; control 52.6%): 29.7%
